Experimental data: the NIST ThermoML archive (doi:10.1021/acs.jced.6b00766)
Numbers after ± are expanded uncertainties.

Experiment: mn = molality of the nth substance listed, in mol/kg
Details: 101.3 kPa, Liquid; for viscosity: Capillary tube (Ostwald / Ubbelohde) method; for mass density: Vibrating tube method

OC[C@@H](O)[C@H](O)[C@@H](O)CO [xylitol] + O
Details	mass density, m1 = 0.2 [kg/m3]	mass density, m1 = 0.4 [kg/m3]	mass density, m1 = 0.6 [kg/m3]	mass density, m1 = 0.8 [kg/m3]	mass density, m1 = 1 [kg/m3]	viscosity, m1 = 0.2 [mPa·s]	viscosity, m1 = 0.4 [mPa·s]	viscosity, m1 = 0.6 [mPa·s]	viscosity, m1 = 0.8 [mPa·s]	viscosity, m1 = 1 [mPa·s]
293.15 K	1008.15 ± 0.28	1017.64 ± 0.42	1026.71 ± 0.57	1035.41 ± 0.71	1043.78 ± 0.86	1.079 ± 0.013	1.161 ± 0.014	1.25 ± 0.016	1.348 ± 0.018	1.443 ± 0.019
303.15 K	1005.42 ± 0.28	1014.74 ± 0.42	1023.67 ± 0.56	1032.22 ± 0.7	1040.41 ± 0.82	0.855 ± 0.01	0.916 ± 0.011	0.981 ± 0.012	1.059 ± 0.014	1.128 ± 0.017
313.15 K	1001.85 ± 0.28	1011.07 ± 0.41	1019.85 ± 0.56	1028.28 ± 0.69	1036.38 ± 0.81	0.697 ± 0.008	0.744 ± 0.009	0.794 ± 0.01	0.851 ± 0.011	0.904 ± 0.013
323.15 K	997.56 ± 0.27	1006.6 ± 0.41	1015.35 ± 0.55	1023.7 ± 0.68	1031.65 ± 0.82	0.582 ± 0.007	0.617 ± 0.008	0.657 ± 0.008	0.701 ± 0.009	0.741 ± 0.01
